This passage reports T/C results from PubChem BioAssay AID330 (DTP/NCI, 2004).

The subject of the assay is P388 leukemia ip, CD2F1 mice, survival T/C. The assay can be described thus: NCI In Vivo Anticancer Drug Screen. Data for tumor model P388 Leukemia (intraperitoneal) in CD2F1 (CDF1) mice. The following applies: endpoint: median survival time, higher = longer survival. In short, it runs like this:
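Mice carrying the transplanted tumor received test compound or vehicle. Survival was recorded in each group, and the value is the treated-group measurement divided by that of the vehicle-treated control group.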

The mark [1] stands for this setting: dose: 50.0 mg/kg/injection, schedule: Q01DX005 (ip), vehicle: saline with Tween-80.
[2] abbreviates: dose: 100.0 mg/kg/injection, schedule: Q01DX005 (ip), vehicle: saline with Tween-80.
[3] abbreviates: dose: 200.0 mg/kg/injection, schedule: Q01DX005 (ip), vehicle: saline with Tween-80.
Where [4] appears, read: dose: 50.0 mg/kg/injection, schedule: Q01DX009 (ip), vehicle: saline.
Where [5] appears, read: dose: 100.0 mg/kg/injection, schedule: Q01DX009 (ip), vehicle: saline.
Setting [6] is: dose: 25.0 mg/kg/injection, schedule: Q01DX009 (ip), vehicle: saline with Tween-80.
Where [7] appears, read: dose: 50.0 mg/kg/injection, schedule: Q01DX009 (ip), vehicle: saline with Tween-80.
Where [8] appears, read: dose: 100.0 mg/kg/injection, schedule: Q01DX009 (ip), vehicle: saline with Tween-80.
Setting [9] is: dose: 50.0 mg/kg/injection, schedule: Q01DX005 (ip), vehicle: Klucel (hydroxypropylcellulose) (HPC).
Setting [10] is: dose: 100.0 mg/kg/injection, schedule: Q01DX005 (ip), vehicle: Klucel (hydroxypropylcellulose) (HPC).
The mark [11] stands for this setting: dose: 200.0 mg/kg/injection, schedule: Q01DX005 (ip), vehicle: Klucel (hydroxypropylcellulose) (HPC).
[12] abbreviates: dose: 50.0 mg/kg/injection, schedule: Q04DX002 (ip), vehicle: saline with Tween-80.

Several values for one entry are separate records, joined by “and”; a condition that tells them apart may be missing. Identical values can stand only once. Inconclusive results and toxic doses are left out.

As for `N#C[C@@H]1C2C=CC(CC2)[C@H]1C#N`, the T/C (dose: 1.25 mg/kg/injection, schedule: Q01DX009 (ip), vehicle: saline with Tween-80) is 100 % of control; the T/C (dose: 1.25 mg/kg/injection, schedule: Q04DX003 (ip), vehicle: saline with Tween-80) was 91 % of control; the T/C (dose: 2.5 mg/kg/injection, schedule: Q01DX009 (ip), vehicle: saline with Tween-80) was 112 % of control; the T/C (dose: 2.5 mg/kg/injection, schedule: Q04DX003 (ip), vehicle: saline with Tween-80) was 104 % of control; the T/C (dose: 5.0 mg/kg/injection, schedule: Q04DX003 (ip), vehicle: saline with Tween-80) was 91 % of control.

In the case of `Cc1cc(=O)n(-c2ccc(-c3ccc(-n4c(C)c(C(=O)O)c(C)cc4=O)cc3)cc2)c(C)c1C(=O)O`, the T/C runs as follows: under setting [1], 102 % of control; under setting [2], 100 % of control; under setting [3], 106 % of control.

On to `COC(=O)C1NC(C(O)C(O)C(O)C(O)CO)SC1(C)C` (stereo not drawn), for which the T/C reads like this: under setting [4], 94 % of control; under setting [5], 102 % of control; (dose: 200.0 mg/kg/injection, schedule: Q01DX009 (ip), vehicle: saline) 100 % of control.

Turning to `CCOC(=O)NOP(=O)(N1CC1)N1CC1`, the T/C reads like this: (dose: 12.5 mg/kg/injection, schedule: Q01DX001 (ip), vehicle: saline + alcohol) 109 % of control and 124 % of control; (dose: 25.0 mg/kg/injection, schedule: Q01DX001 (ip), vehicle: saline + alcohol) 111 % of control; (dose: 100.0 mg/kg/injection, schedule: Q01DX001 (ip), vehicle: saline + alcohol) 238 % of control.

Take `CC1NC(=O)OC12CCCCC2` (stereo not drawn): the T/C reads like this: under setting [6], 93 % of control; under setting [7], 100 % of control.

As to `Cn1c2ccc(Cl)cc2c2oc(-c3nn[nH]n3)cc(=O)c21`, the T/C reads like this: under setting [1], 102 % of control; under setting [2], 107 % of control; under setting [3], 97 % of control.

For `CCC(/C=C/c1ccccc1)=N\NC(=O)c1ccc(Cl)c(Cl)c1`, the T/C is 88 % of control and 89 % of control (dose: 60.0 mg/kg/injection, schedule: Q01DX005 (ip), vehicle: saline with Tween-80); 88 % of control (dose: 120.0 mg/kg/injection, schedule: Q01DX005 (ip), vehicle: saline with Tween-80); 92 % of control and 97 % of control (dose: 240.0 mg/kg/injection, schedule: Q01DX005 (ip), vehicle: saline with Tween-80).

With `CCOC(=O)C(C)(C)CN1COCC1(C)C`, the T/C runs as follows: (dose: 50.0 mg/kg/injection, schedule: Q01DX001 (ip), vehicle: saline with Tween-80) 104 % of control; (dose: 100.0 mg/kg/injection, schedule: Q01DX001 (ip), vehicle: saline with Tween-80) 104 % of control; (dose: 200.0 mg/kg/injection, schedule: Q01DX001 (ip), vehicle: saline with Tween-80) 118 % of control.

Turning to `COc1ccc(N2CCN(CC(O)COc3cc4c(c5c3CCCC5)CCCC4)CC2)cc1` (stereo not drawn), the T/C is 104 % of control (dose: 100.0 mg/kg/injection, schedule: Q04DX003 (ip), vehicle: Klucel (hydroxypropylcellulose) (HPC)); 94 % of control (dose: 200.0 mg/kg/injection, schedule: Q04DX003 (ip), vehicle: Klucel (hydroxypropylcellulose) (HPC)); 108 % of control (dose: 400.0 mg/kg/injection, schedule: Q04DX003 (ip), vehicle: Klucel (hydroxypropylcellulose) (HPC)).

With `Nc1nc(N)c2nc3c(nc2n1)CCCCCCCCCC3`, the T/C was 92 % of control (dose: 12.5 mg/kg/injection, schedule: Q01DX009 (ip), vehicle: saline with Tween-80); 92 % of control under setting [6]; 89 % of control under setting [7]; 90 % of control under setting [8].

As to `Cc1cc(C)n(-c2nnc(-n3nc(C)cc3C)c3ccccc23)n1`, the T/C by setting is: under setting [4], 94 % of control; under setting [5], 87 % of control.

For the compound `ClC(Cl)(Cl)Cl`, the T/C was 103 % of control (dose: 0.37 % in 0.5 ml injection vol, schedule: Q01DX009 (ip), vehicle: water); 103 % of control (dose: 0.75 % in 0.5 ml injection vol, schedule: Q01DX009 (ip), vehicle: water); 104 % of control (dose: 1.5 % in 0.5 ml injection vol, schedule: Q01DX009 (ip), vehicle: water).

For the compound `CN1CCN(c2ccc3nc(-c4ccc5nc(-c6ccc(O)cc6)[nH]c5c4)[nH]c3c2)CC1`, under setting [4], the T/C was 153 % of control.

Consider `C=CCSc1nc2ccc(NC(=O)CCC(=O)O)cc2s1`, for which the T/C by setting is: (dose: 50.0 mg/kg/injection, schedule: Q01DX009 (ip), vehicle: Klucel (hydroxypropylcellulose) (HPC)) 103 % of control; (dose: 100.0 mg/kg/injection, schedule: Q01DX009 (ip), vehicle: Klucel (hydroxypropylcellulose) (HPC)) 111 % of control; (dose: 200.0 mg/kg/injection, schedule: Q01DX009 (ip), vehicle: Klucel (hydroxypropylcellulose) (HPC)) 93 % of control.

As to `CC1=CCC(C#N)N(C)C1c1ccccc1` (stereo not drawn), the T/C reads like this: under setting [9], 108 % of control; under setting [10], 97 % of control; under setting [11], 99 % of control.

In the case of `CS\C(N)=N/N=C/C(C)=N/N=C(/N)SC`, the T/C under setting [12] was 101 % of control; the T/C (dose: 100.0 mg/kg/injection, schedule: Q04DX002 (ip), vehicle: saline with Tween-80) is 100 % of control; the T/C (dose: 200.0 mg/kg/injection, schedule: Q04DX002 (ip), vehicle: saline with Tween-80) is 100 % of control.

Take `Cc1ocnc1Cc1ccc(O)c(O)c1`: the T/C (dose: 100.0 mg/kg/injection, schedule: Q01DX001 (ip), vehicle: saline) was 101 % of control; the T/C (dose: 200.0 mg/kg/injection, schedule: Q01DX001 (ip), vehicle: saline) was 96 % of control; the T/C (dose: 400.0 mg/kg/injection, schedule: Q01DX001 (ip), vehicle: saline) was 98 % of control.

As to `COC(=O)/C1=C/CCC2=CC(CCC1)OC2=O` (stereo not drawn), the T/C runs as follows: (dose: 35.75 mg/kg/injection, schedule: Q01DX005 (ip), vehicle: Klucel (hydroxypropylcellulose) (HPC)) 103 % of control; (dose: 71.5 mg/kg/injection, schedule: Q01DX005 (ip), vehicle: Klucel (hydroxypropylcellulose) (HPC)) 99 % of control; (dose: 143.0 mg/kg/injection, schedule: Q01DX005 (ip), vehicle: Klucel (hydroxypropylcellulose) (HPC)) 97 % of control.

Regarding `CCCCC1N=CNc2c1ccc1c2[nH]c2ccccc21` (stereo not drawn), the T/C (dose: 12.5 mg/kg/injection, schedule: Q04DX002 (ip), vehicle: saline with Tween-80) is 101 % of control; the T/C (dose: 25.0 mg/kg/injection, schedule: Q04DX002 (ip), vehicle: saline with Tween-80) was 99 % of control; the T/C under setting [12] is 111 % of control.

Regarding `CCCOc1cc2c(cc1C(C)(C)c1ccc(OC)cc1)OCO2`, the T/C reads like this: (dose: 50.0 mg/kg/injection, schedule: Q01DX005 (ip), vehicle: saline + Tween-80 + alcohol) 102 % of control; (dose: 100.0 mg/kg/injection, schedule: Q01DX005 (ip), vehicle: saline + Tween-80 + alcohol) 111 % of control; (dose: 200.0 mg/kg/injection, schedule: Q01DX005 (ip), vehicle: saline + Tween-80 + alcohol) 95 % of control.

For `CN(C)C1C(=O)C(C(N)=O)=C(O)C2(O)C(=O)C3=C(O)c4c(O)cccc4C(C)(O)C3CC12.[Cl][Sb]([Cl])[Cl]` (stereo not drawn), the T/C runs as follows: under setting [1], 119 % of control; under setting [2], 108 % of control.

For `CCCCCCCCC(O)CCC` (stereo not drawn), the T/C by setting is: (dose: 100.0 mg/kg/injection, schedule: Q04DX003 (ip), vehicle: saline) 100 % of control; (dose: 200.0 mg/kg/injection, schedule: Q04DX003 (ip), vehicle: saline) 100 % of control; (dose: 400.0 mg/kg/injection, schedule: Q04DX003 (ip), vehicle: saline) 100 % of control.

On to `C[C@]12C[C@@H](O)[C@H]3[C@@H](CCC4=C(O)C(=O)CC[C@@]43C)[C@@H]1CC[C@@H]2O`, for which the T/C was 97 % of control (dose: 12.5 mg/kg/injection, schedule: Q01DX005 (ip), vehicle: Klucel (hydroxypropylcellulose) (HPC)); 105 % of control (dose: 25.0 mg/kg/injection, schedule: Q01DX005 (ip), vehicle: Klucel (hydroxypropylcellulose) (HPC)); 101 % of control under setting [9]; 90 % of control under setting [10]; 95 % of control under setting [11].

On to `COc1cc(/C=C2/SC(=S)NC2=O)cc(OC)c1OC`, for which the T/C runs as follows: under setting [6], 100 % of control; under setting [7], 102 % of control; under setting [8], 96 % of control; (dose: 200.0 mg/kg/injection, schedule: Q01DX009 (ip), vehicle: saline with Tween-80) 96 % of control.
